Data reported in ChEMBL document CHEMBL1201862, “PubChem BioAssay data set” (2004).
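Assay format: 96-well plates, 48-hour exposure. Abbreviation: GI50, concentration required for 50% inhibition of growth.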 Activity calls are given as the source filed them. Rule as the data show it: active = GI50 up to about 1.1 µM and inactive = higher. Residues, ends and D or L forms follow the SMILES beside them.

Legend:
Test in all cases: NCI anticancer screen, dose series, 48 h
786-0 = test system: 786-0
A549 = test system: A549
HCC 2998 = test system: HCC 2998
HCT-116 = test system: HCT-116
HCT-15 = test system: HCT-15
HL-60 = test system: HL-60
HOP-92 = test system: HOP-92
HT-29 = test system: HT-29
K562 = test system: K562
LOX IMVI = test system: LOX IMVI
M14 = test system: M14
NCI-H23 = test system: NCI-H23
NCI-H522 = test system: NCI-H522
NCI/ADR-RES = test system: NCI/ADR-RES
SF-268 = test system: SF-268
SF-539 = test system: SF-539
SW-620 = test system: SW-620
T47D = test system: T47D
UACC-257 = test system: UACC-257
EKVX = test system: EKVX

SMILES | GI50 (786-0) | GI50 (A549) | GI50 (HCC 2998) | GI50 (HCT-116) | GI50 (HCT-15) [µM] | GI50 (HL-60) | GI50 (HOP-92) | GI50 (HT-29) | GI50 (K562) | GI50 (LOX IMVI) | GI50 (M14) | GI50 (NCI-H23) | GI50 (NCI-H522) | GI50 (NCI/ADR-RES) | GI50 (SF-268) | GI50 (SF-539) | GI50 (SW-620) | GI50 (T47D) | GI50 (UACC-257) | GI50 (EKVX)
CCN(CC)c1ccc2cc(-c3nc4ccccc4n3C)c(=O)oc2c1 | 0.381 µM (active) | 0.578 µM (active) | 0.685 µM (active) | 0.204 µM (active) | 0.17 | 0.206 µM (active) | 0.873 µM (active) | 0.259 µM (active) | 0.102 µM (active) | 0.495 µM (active) | 0.355 µM (active) | 0.334 µM (active) | 0.205 µM (active) | 0.135 µM (active) | 2.05 µM (inactive) | 0.222 µM (active) | 0.163 µM (active) | > 100 µM (inactive) | 1.17 µM (inactive) | 
Cc1nc(O)nc2nc3cc(Cl)cc(Cl)c3c(NC(C)(CO)CO)c12 | 15.6 µM (inactive) | > 100 µM (inactive) | > 100 µM (inactive) | 34 µM (inactive) | > 100 |  | 16.4 µM (inactive) | > 100 µM (inactive) | > 100 µM (inactive) | > 100 µM (inactive) | > 100 µM (inactive) | 81.8 µM (inactive) | > 100 µM (inactive) | > 100 µM (inactive) | 25.7 µM (inactive) | > 100 µM (inactive) | > 100 µM (inactive) | > 100 µM (inactive) | > 100 µM (inactive) | > 100 µM (inactive)
CCn1c(-c2cc(OC)cc(OC)c2)nc2c1C(=O)c1ccccc1C2=O | 45.4 µM (inactive) | > 100 µM (inactive) | > 100 µM (inactive) | > 100 µM (inactive) | > 100 | > 100 µM (inactive) | 60 µM (inactive) | > 100 µM (inactive) | > 100 µM (inactive) |  | > 100 µM (inactive) | > 100 µM (inactive) | 6.46 µM (inactive) | > 100 µM (inactive) | 65.8 µM (inactive) | > 100 µM (inactive) | > 100 µM (inactive) | > 100 µM (inactive) | > 100 µM (inactive) | > 100 µM (inactive)
c1ccc2c(c1)CCc1c-2n(CCN2CCCCC2)c2ccccc12 | 16.3 µM (inactive) | 18.7 µM (inactive) | 13.1 µM (inactive) | 12.5 µM (inactive) | 10.6 |  | 16.4 µM (inactive) | 8.2 µM (inactive) | 9.75 µM (inactive) | 15.1 µM (inactive) | 13.5 µM (inactive) | 17.7 µM (inactive) | 13.5 µM (inactive) | 16.8 µM (inactive) | 21.2 µM (inactive) | 12.9 µM (inactive) | 20.8 µM (inactive) | 15.5 µM (inactive) | 17.2 µM (inactive) | 20.4 µM (inactive)
COc1cc(C=O)cc(/C=N/N=C/c2ccccc2O)c1O | 19.2 µM (inactive) | 79.6 µM (inactive) |  | 26.1 µM (inactive) | 40.1 | < 0.01 µM (active) | 3.22 µM (inactive) | 34.1 µM (inactive) |  | 21.7 µM (inactive) | 15.6 µM (inactive) | 23.6 µM (inactive) | 40.5 µM (inactive) | 36 µM (inactive) | 36.6 µM (inactive) | 4.73 µM (inactive) | 62.2 µM (inactive) | 4.71 µM (inactive) | 32.9 µM (inactive) | 
O=C(Cn1c(-c2ccccc2)cc2ccccc21)N1CCCC1 | > 100 µM (inactive) | > 100 µM (inactive) |  | > 100 µM (inactive) | > 100 |  | > 100 µM (inactive) | > 100 µM (inactive) |  | > 100 µM (inactive) | > 100 µM (inactive) |  | > 100 µM (inactive) | > 100 µM (inactive) | > 100 µM (inactive) |  | > 100 µM (inactive) | > 100 µM (inactive) | > 100 µM (inactive) | > 100 µM (inactive)
Cc1c(C(=O)C(=O)c2ccccc2)c(C)c(C(=O)C(=O)c2ccccc2)c(C)c1C(=O)C(=O)c1ccccc1 | > 100 µM (inactive) | > 100 µM (inactive) | > 100 µM (inactive) | > 100 µM (inactive) | > 100 | > 100 µM (inactive) |  | > 100 µM (inactive) | > 100 µM (inactive) |  | > 100 µM (inactive) |  | > 100 µM (inactive) | > 100 µM (inactive) | > 100 µM (inactive) | > 100 µM (inactive) | > 100 µM (inactive) | > 100 µM (inactive) | > 100 µM (inactive) | > 100 µM (inactive)
C(=N\OCCc1ccccc1)/c1cccnc1 | > 100 µM (inactive) | > 100 µM (inactive) | > 100 µM (inactive) | > 100 µM (inactive) | > 100 | 5.02 µM (inactive) | > 100 µM (inactive) | > 100 µM (inactive) | > 100 µM (inactive) |  | > 100 µM (inactive) | > 100 µM (inactive) | > 100 µM (inactive) | > 100 µM (inactive) | > 100 µM (inactive) | > 100 µM (inactive) | > 100 µM (inactive) | > 100 µM (inactive) | > 100 µM (inactive) | > 100 µM (inactive)
COc1ccc(C(OCC2OC3(COC(c4ccccc4)(c4ccc(OC)cc4)c4ccc(OC)cc4)C(Oc4nc(=O)ccn43)C2O)(c2ccccc2)c2ccc(OC)cc2)cc1 (stereo not drawn) | > 100 µM (inactive) | > 100 µM (inactive) |  | > 100 µM (inactive) | > 100 | > 100 µM (inactive) |  | > 100 µM (inactive) | > 100 µM (inactive) | > 100 µM (inactive) | > 100 µM (inactive) | > 100 µM (inactive) | > 100 µM (inactive) | > 100 µM (inactive) | > 100 µM (inactive) | > 100 µM (inactive) | > 100 µM (inactive) | > 100 µM (inactive) | > 100 µM (inactive) | > 100 µM (inactive)
CCOC1OC(COC(=O)C(C)(C)C)C(O)CC1n1cc(C)c(=O)[nH]c1=O (stereo not drawn) | > 100 µM (inactive) | > 100 µM (inactive) | > 100 µM (inactive) | > 100 µM (inactive) | > 100 |  | > 100 µM (inactive) | > 100 µM (inactive) | > 100 µM (inactive) | > 100 µM (inactive) | > 100 µM (inactive) | > 100 µM (inactive) | > 100 µM (inactive) | > 100 µM (inactive) | > 100 µM (inactive) | > 100 µM (inactive) | > 100 µM (inactive) | > 100 µM (inactive) | > 100 µM (inactive) | > 100 µM (inactive)
CS[C@]12[C@@H]3C(=O)N(C)C(=O)[C@@H]3[C@](C)(C(=O)N1C)C(=O)N2c1ccccc1 | > 100 µM (inactive) | > 100 µM (inactive) | > 100 µM (inactive) | > 100 µM (inactive) | > 100 | > 100 µM (inactive) | > 100 µM (inactive) | > 100 µM (inactive) |  | > 100 µM (inactive) | > 100 µM (inactive) | > 100 µM (inactive) | > 100 µM (inactive) | > 100 µM (inactive) | > 100 µM (inactive) | > 100 µM (inactive) | > 100 µM (inactive) | > 100 µM (inactive) | > 100 µM (inactive) | > 100 µM (inactive)
CCN(CC)CCNC(=O)c1cc2cc(NC(=O)c3cc4cc([N+](=O)[O-])ccc4[nH]3)ccc2[nH]1 | 2.25 µM (inactive) | 19.3 µM (inactive) | 11.2 µM (inactive) | 2.85 µM (inactive) | > 100 |  | 11 µM (inactive) | 2.93 µM (inactive) | 1.61 µM (inactive) | 3.86 µM (inactive) | 57.8 µM (inactive) | 8.49 µM (inactive) | 3.09 µM (inactive) | > 100 µM (inactive) | 13.6 µM (inactive) | 6.43 µM (inactive) | 6.11 µM (inactive) | 18.4 µM (inactive) | 29.4 µM (inactive) | 4.98 µM (inactive)
COc1cc([C@@H]2c3cc4c(cc3[C@@H](Nc3ccc(Cl)cc3C(=O)c3ccccc3)[C@H]3COC(=O)[C@H]23)OCO4)cc(OC)c1OC | 0.394 µM (active) | 0.501 µM (active) | 0.205 µM (active) | 0.291 µM (active) | 0.308 | 0.297 µM (active) |  | 0.307 µM (active) | 0.358 µM (active) | 0.303 µM (active) | 0.414 µM (active) | 0.43 µM (active) | 0.211 µM (active) | 0.425 µM (active) | 0.558 µM (active) | 0.274 µM (active) | 0.369 µM (active) | > 100 µM (inactive) | 0.998 µM (active) | > 100 µM (inactive)
CCC(C)C(NC(=O)C1CCCN1)C(=O)NC(C(=O)NCC(=O)NC(CC(N)=O)C(=O)NC(CC(C)C)C(=O)NC(CC(C)C)C(=O)NC(CCCCN)C(N)=O)C(C)C (stereo not drawn) (H-PIVGNLLK-NH2; configuration not given here) | > 75 µM (inactive) | > 75 µM (inactive) |  | > 75 µM (inactive) | > 75 | 23 µM (inactive) | > 75 µM (inactive) | > 75 µM (inactive) | > 75 µM (inactive) | > 75 µM (inactive) | > 75 µM (inactive) | > 75 µM (inactive) | > 75 µM (inactive) | > 75 µM (inactive) | > 75 µM (inactive) | > 75 µM (inactive) | > 75 µM (inactive) | > 75 µM (inactive) | > 75 µM (inactive) | > 75 µM (inactive)
OC(CCN1CCCCC1)(c1ccccc1)c1ccccc1 [PRIDINOL] | > 100 µM (inactive) | > 100 µM (inactive) |  | > 100 µM (inactive) | > 100 |  | 32.4 µM (inactive) | 55 µM (inactive) | > 100 µM (inactive) | > 100 µM (inactive) | > 100 µM (inactive) | > 100 µM (inactive) | > 100 µM (inactive) | > 100 µM (inactive) | > 100 µM (inactive) |  | > 100 µM (inactive) | > 100 µM (inactive) |  | 79.6 µM (inactive)
